These results are taken from patent US9757405B2, “Compositions comprising rutin useful for the treatment of tumors resistant to chemotherapy” (PROBIOTICAL S.P.A., priority 2013, dated 2017).

For data set [1], the system named is MDA-MB-231 (breast adenocarcinoma) cells. Briefly: Cell viability of chemoresistant MDA-MB-231 cells. In kind it is cell-based, human. The following applies: alone or in association with cyclophosphamide. An excerpt:
(§1) The activity of the association of rutin with synthetic chemotherapeutics (cyclophosphamide) and of the association of rutin with arctigenin, arctiin, berberine, berbamine, sanguinarine, chelerythrine (referred to with the term “extracts” in the tables), was studied on resistant cell lines of adenocarcinomas and carcinomas compared with chemosensitive tumor cell lines and with line cells.
(§2) In particular, chemoresistant human tumor cells MDA-MB-231 (breast adenocarcinoma), ECV-304 (bladder carcinoma), HuH-7 (hepatocellular carcinoma) and HTB-43 (squamous cell carcinoma of the pharynx), chemosensitive tumor cells MCF-7 (breast adenocarcinoma) and non-tumor healthy human mammal fibroblasts (HMF) have been used.

Data set [2] is described as follows: Cell viability of non-tumor healthy fibroblasts HMF. The following applies: human.
Source text: as §1, §2

On to `O=c1c(O)c(-c2ccc(O)c(O)c2)oc2cc(O)cc(O)c12` [Quercetin, quercetin], for which, in data set [1], the “Synergic effect in association with cyclophosphamide” value was “absence of synergic effects”.

Regarding `O=P1(N(CCCl)CCCl)NCCCO1` (stereo not shown) [Cyclophosphamide, cyclophosphamide], in data set [2], the viability at 850 ng/ml was determined as 54%, the viability at 1000 ng/ml worked out at 48% and the viability at 1300 ng/ml worked out at 42%.

The term viability denotes a per cent measure of how many cells are alive, often set against a control.
